According to ChEMBL document CHEMBL1177749, “Tetracyclic chromane derivatives from Rhododendron anthopogonoides” (J Nat Prod, 2010):

Tested on: Mast cell
Assay: Inhibition of compound 48/80-induced histamine release in Wister rat Peritoneal mast cells
Assay type: functional, cell-based

Structure (SMILES)	IC50
Cc1cc2c(c(O)c1C(=O)O)[C@H]1[C@@H]3[C@@](C)(CCC[C@]3(C)O2)[C@H]1C(=O)CC(C)C [ANTHOPOGOCHROMANE]	114 µM
C/C(=C\CC[C@@]1(C)C=Cc2c(cc(C)c(C(=O)O)c2O)O1)CC(=O)CC(C)C [ANTHOPOGOCHROMENE A]	63 µM
COc1ccc2c(c1)c(CC(=O)O)c(C)n2C(=O)c1ccc(Cl)cc1 [INDOMETHACIN]	250 µM
